Measured values reported in patent publication US10416153B2, “Chemical fluorescent probes for detecting biofilms” (priority 2015, dated 2019).

Assays:
purified amyloid = purified amyloid (Pseudomonas aeruginosa, UniProt Q9I2F0); assay: Surface plasma resonance assay with purified amyloid immobilized on chips; type: binding
Protocol: In a biofilm screening, two different types of biofilms (biofilm versus amyloid deficient biofilm) were treated with compounds and hits were identified by selective staining of biofilms containing amyloid structures. Thus, the binding affinity of four compounds with the purified amyloid subunit (fibril) protein was validated by surface plasma resonance assay. The subunit protein was immobilized on chips and each of compounds was flowed continuously. Thioflavin T, BDN1 B2 and BDNAC3 E6 were tested with hit compounds. […] (A) TEM images of purified amyloid proteins. Scale bar=400 nm. (B) Surface plasma resonance assay of four amyloid targeting compounds with purified amyloid.
Amyloids were prepared in HEPES buffer (0.01 M HEPES, pH 7.4, 0.15 M NaCl, 3 mM EDTA and 0.005% P20). Amyloid fibers were fragmented with sonication at 80 Hz for 10 s and centrifuged at 14 000 g for 30 s to remove any large fibers. Concentrate (40 μL) was mixed with 10 mM sodium acetate (120 μL), pH 5.5 right before immobilization.
SPR experiments were performed at 25° C. using Biacore T-200 biosensor with research grade CM5-S sensor chips (Biacore, GE Healthcare). Carboxymethylated CM5-S chips were activated using 70 μL of 0.2 M 1-ethyl-3-[3-(dimethylamino)propyl] carbodiimide hydrochloride (EDC) and 0.05 M N-hydroxysuccinimide (NHS) in a 1:1 ratio. Amyloid in sodium acetate solution (100 μL) was injected over the activated surface until an immobilization level of 7700 response units (RU) was reached. Ethanolamine hydrochloride (1.0 M), pH 8.5 was injected across the surface for 5 min to block any residual activated-unreacted carboxyl groups. Compounds were dissolved into HEPES buffer containing final concentration of 5% DMSO and serially diluted to 340 nM, 1.03, 3.09, 9.26, 27.78, 83.33 μM. Tht+ was prepared similarly as positive control. Replicates of the diluted compounds were injected across a unmodified flow cell and amyloid-immobilized flow cell in a serial manner for association phase of 60 s followed by dissociation phase of 5 min. […] The chip surface was rinsed using HEPES buffer. All sensorgrams were double-referenced with responses from unmodified channel and blank HEPES buffer injections. Equilibrium responses from the compounds were plotted against logarithmic of their corresponding concentrations where the binding affinities were calculated from 50% saturation.
First batch of screening was done under varying amyloid expression conditions for specifically isolating amyloid targeting compounds and four compounds were isolated from cell based screening. […] Finally, four compounds were examined by surface plasma resonance assay whether those have binding specificity with putative target, namely amyloid. Four hit compounds were examined with thioflavin T and two negative controls on chips after immobilizing purified amyloid.

P. aeruginosa (PAO1-GFP) = assay: Eye infection model, imaging of infected cornea under TRITC channel; type: in vivo; conditions: mouse cornea infected with PAO1-GFP for 2 days, 10 minutes incubation with compound
Protocol: (A) Propagation of Pseudomonas aeruginosa (PAO1-GFP) after infecting into mouse eyes. GFP signals were detected after 12 hours later after infecting bacteria and signals were fully saturated after 24 hours later; Scale bar=2 mm. (B) Tests of amyloid targeting compounds in eye infection models. The model was generated by inoculation of a GFP tagged P. aeruginosa PAO1 strain into the eye after making scratches in cornea. Images were taken in bright field and TRITC from ketamine/xylazine anesthetized mice and compounds signals were examined under TRITC channel after incubation with compounds for 10 minutes at room temperature. Scale bar=2 mm.
P. aeruginosa (PAO1-GFP) was grown at 37° C. in ABTGC media for 16 h. 500 μL of cultured PAO1-GFP was transferred to 1.5 mL Eppendorf tube and centrifuged at 14 000 g for 3 min. Supernatant was removed and pellet was washed with PBS buffer 3 times. Finally, pellet was resuspended in 250 μL of PBS buffer.
Mice were anesthetized ketamine/xylazine by peritoneal injection before scratches were made in cornea with blade. PAO1-GFP (1 μL, 2×107˜10^8 CFU) dissolved in PBS buffer was treated in left eye and PBS buffer was treated in right eye. P. aeruginosa inoculated mice were incubated for 2 days before in vivo experiments. Animal handling was in accordance with the Institutional Aminal Care and Use Committee of Singapore Bioimaging Consortium (Agency of Science, Technology and Research, Singapore).
Biofilm is stained by amyloid targeting compounds through interacting with FAP proteins which is one of the components for intact biofilm. Thus, amyloid targeting compounds were tested in eye infection model which is one of the naturally reported symptoms of P. aeruginosa containing biofilms. Eye infection model was generated in black mouse. […] GFP signals were detected after 12 hours incubation with P. aeruginosa-GFP bacteria.
Fluorescence signals under TRITC channel were checked to confirm infection on cornea and amyloid compounds were tested under TRITC channel after incubation for 10 minutes. […]

[1] = tested on: P. aeruginosa biofilm (PAO1-GFP); assay: Mouse implant model, silicone tubes coated with PAO1-GFP biofilm; type: in vivo, BALB/c mice; conditions: 100 μM (200 μL) injected via the peritoneal cavity, 2 h before recovering implants; listed as CDy11
Source text: (§1) CLSM images of a GFP tagged P. aeruginosa PAO1 strain colonizing silicone implants after removal from BALB/c mice at day 1 post insertion. Green fluorescent areas represent P. aeruginosa. Insertion of silicone tube into mice which was precoated with (A) PAO1Δfap-GFP and (B) PAO1-GFP biofilms. Images of the microcolonies adhering to the silicone implants with CDy11. Only PAO1-GFP biofilms coated silicone tube was stained by CDy11; Scale bars=10 μm.
(§2) One bacterial colony (PAO1-GFP) was picked up from the plate to inoculate an overnight culture in LB (Luria Broth) media in 37° C. incubator with 110 rpm/min for 20 h. Silicone tubes (Ole Dich) were cut with a thickness of 4 mm and were sterilized in 0.5% NaClO for overnight. Next day, 25 mL of overnight cultured media was transferred to 50 mL conical tube and pellet was collected by centrifuging at 3000 rpm for 10 min. Subsequently, pellet was suspended with 2 mL of LB media before optical density was observed under 600 nm wavelength.
(§3) Sterilized silicone was washed twice in 0.9% NaCl solution. Silicone tubes (8 pieces) in 50 mL flask were incubated with 10 mL of diluted bacteria (OD600=0.1) in 0.9% NaCl solution in rotationary shaker at 37° C. with 110 rpm/min for 20 h. […]
(§4) All silicone tubes were collected after 2 h incubation to observe CDy11 fluorescence of the inner surface of the silicone tube by means of laser confocal scanning microscopy. […]

[2] = tested on: PAO1Δfap-GFP strain biofilm; assay: Mouse implant model, silicone tubes coated with PAO1Δfap-GFP biofilm; type: in vivo, BALB/c mice; conditions: 100 μM (200 μL) injected via the peritoneal cavity, 2 h before recovering implants
Source text: as §1, §2, §3, §4

Immune cells = assay: Mouse implant model, silicone tubes without P. aeruginosa precoating; type: in vivo, BALB/c mice; conditions: same amount injected via the peritoneal cavity; data not shown
Protocol: After anesthesia of mice with ketamine/xylazine mix by intraperitoneal injection, the mouse was placed ventral side up on plate. Fur was clipped and the skin was swabbed with 70% ethanol. An incision of approximately 0.5-1 cm was made in the left groin area. Then an implant prepared the day before was inserted into peritoneal cavity via the incision. The incision was closed with a suture and healed on a warm pad at 26-28° C.
The inventors also applied a mouse implant model to test the capacity of CDy11 (BDNAC3 D8) to detect P. aeruginosa biofilms in a surgical format. Silicone tubes were precolonized by bacteria and subsequently inserted into the peritoneal cavity 1 day before the experiment. BALB/c mice were assigned to each of the two groups and 100 μM CDy11 (200 μL) was injected into the mice via the peritoneal cavity 2 h before recovering the implants. As a mock control, a similar volume of buffer was injected into the second set of mice. In addition, CDy11 was injected into a set of mice which had been installed with uncolonized silicone tubes in the peritoneal cavity.
All silicone tubes were collected after 2 h incubation to observe CDy11 fluorescence of the inner surface of the silicone tube by means of laser confocal scanning microscopy. […] The silicone tubes without P. aeruginosa precoating were also examined by injection of same amount of CDy11. […]

Chain of purified amyloid (Q9I2F0 25-340): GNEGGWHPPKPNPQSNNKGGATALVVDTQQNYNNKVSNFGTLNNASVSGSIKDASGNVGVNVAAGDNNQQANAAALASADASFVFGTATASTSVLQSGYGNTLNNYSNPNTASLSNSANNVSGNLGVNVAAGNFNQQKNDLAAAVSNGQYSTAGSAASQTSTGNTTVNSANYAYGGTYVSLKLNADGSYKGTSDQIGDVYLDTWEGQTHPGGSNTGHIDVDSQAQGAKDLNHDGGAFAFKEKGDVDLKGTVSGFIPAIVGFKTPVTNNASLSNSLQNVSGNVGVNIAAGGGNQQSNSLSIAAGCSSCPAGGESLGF

Row | Structure (SMILES) | Kd (purified amyloid) [µM] | visualization of infected eyes (P. aeruginosa (PAO1-GFP)) | staining of PAO1-GFP biofilm coated silicone tube [1] | staining of PAO1Δfap-GFP biofilm coated silicone tube [2] | staining of immune cells in silicone tubes without P. aeruginosa precoating (Immune cells)
1 | COc1cc(Cl)cc(/C=C/c2cc(C)c3n2[B-](F)(F)[N+]2=CC=CC2=C3c2ccc(N)cc2)c1OC [BDN2 H2] | 61 ± 3 | visualized |  |  | 
2 | COc1cc(/C=C/c2cc(C)c3n2[B-](F)(F)[N+]2=CC=CC2=C3c2ccc(N)cc2)c(Br)c(Br)c1O [BDN3 F3] | 16 ± 1 |  |  |  | 
3 | Cc1cc(/C=C/c2ccc(-c3ccc([N+](=O)[O-])cc3)o2)n2c1C(c1ccc(N)cc1)=C1C=CC=[N+]1[B-]2(F)F [BDN3 G7] | 28 ± 5 | visualized |  |  | 
4 | COc1ccc(/C=C/c2cc(C)c3n2[B-](F)(F)[N+]2=CC=CC2=C3c2ccc(NC(C)=O)cc2)c(F)c1 [BDNAC3 D8] | 29 ± 2 | visualized | specifically stained | not stained | not stained
5 | Cc1ccc2c(c1)sc(-c1ccc(N(C)C)cc1)[n+]2C [thioflavin T, reference compound] | 85 ± 7 |  |  |  | 
